{
  "source": "patent US20120164731A1",
  "about": "“METHOD OF INDUCING DIFFERENTIATION FROM PLURIPOTENT STEM CELLS TO SKELETAL MUSCLE PROGENITOR CELLS” (KYOTO UNIVERSITY, priority 2009, published 2012)",
  "molecules": {"B1": {"name": "bone morphogenetic protein 4 (protein, UniProt P12644 293-408, looked up)", "Bone morphogenetic protein 4": "SPKHHSQRARKKNKNCRRHSLYVDFSDVGWNDWIVAPPGYQAFYCHGDCPFPLADHLNSTNHAIVQTLVNSVNSSIPKACCVPTELSAISMLYLDEYDKVVLKNYQEMVVEGCGCR", "notes": "growth factor (Peprotech) added to the differentiation medium for the first 3 days"}, "B2": {"name": "Activin A (protein, UniProt P08476 311-426, looked up)", "Inhibin beta A chain": "GLECDGKVNICCKKQFFVSFKDIGWNDWIIAPSGYHANYCEGECPSHIAGTSGSSLSFHSTVINHYRMRGHSPFANLKSCCVPTKLRPMSMLYYDDGQNIIKKDIQNMIVEECGCS", "modifications": "Inhibin beta A chain", "notes": "as for B1"}},
  "key": {"iPS-DsRed": {"test_system": "iPS-DsRed", "assay": "Induction of differentiation from primitive streak mesodermal cells to skeletal muscle progenitor cells (SM/C-2.6 FACS, Myf5 RT-PCR)", "assay_type": "cell-based, mouse", "method": "(§1) Undifferentiated cells were detached from the dish as in the passage subculture, and twice washed with the differentiation induction basal medium. 10 ml of the culture medium for the first 3 days was added to a 10 cm cell culture dish coated with collagen type IV (Nitta Gelatin), and 500,000 undifferentiated iPS cells were seeded thereinto. The cells were cultured in an incubator adjusted to 37° C., 5% CO2, and 100% humidity for 3 days, after which the medium was replaced with the culture medium for the last 3 days. The cells were thus differentiation-induced for a total of 6 days, from which skeletal muscle progenitor cells were separated by the method of cell separation described below, and these were used in the subsequent experiments.\n(§2) The mouse iPS cells induced by the above-described differentiation induction method were divided into a population of skeletal muscle progenitor cells and a population of other cells using FACS Aria (Becton Dickinson). The cells were stained using antibodies as described previously [Sakurai, H. et al., Stem Cells 24, 575-586 (2006)]. Three different rat monoclonal antibodies were used: APA5 (anti-PDGFRα), ECCD2 (anti-ECD) and SM/C-2.6. The former two were supplied by Dr. Nishikawa [Sakurai, H. et al., Stem Cells 24, 575-586 (2006)], and the remaining one by Dr. Yamamoto [Fukada, S. et al., Exp Cell Res., 296, 245-255 (2004)]. The APA5 and SM/C-2.6 were conjugated with biotin (PIERCE) and fluorescently labeled using streptavidin-APC as a secondary antibody. The ECCD2 was directly conjugating with Alexa488 (Molecular Probes) by a conventional method and fluorescently labeled. The fluorescently labeled cells were suspended in Hanks' balanced salt solution (Invitrogen) supplemented with 1% bovine serum albumin to obtain a cell density of 5,000,000 cells per mL, fluorescence was examined and analyzed using FACS Aria, and the PDGFRα-positive fraction was separated and recovered.\nRNA was extracted from the recovered cells using Sepasol Reagent (Nacalai Tesque). cDNA was synthesized from the RNA using the SuperScriptll reverse transcription kit (Invitrogen). DNA was amplified by 25-35 cycles of PCR reaction using the ExTaq PCR reagent kit (Takara Bio) and the PTC200 thermal cycler (DNA engine), and analyzed by electrophoresis. The PCR primers shown below were used.\nTo find a method for effectively inducing the differentiation, the present inventors investigated the potential of the Wnt signal inducer LiCl, used alone or in combination with other growth factors, for inducing the differentiation of iPS cells into skeletal muscle progenitor cells. Selected growth factor candidates, i.e., Sonic Hedgehog (Shh) and IGF-1, were added to the differentiation medium for the last 3 days, and their influences on differentiation into skeletal muscle progenitor cells were examined (FIG. 3A). The iPS cell used was iPS-DsRed. The degree of differentiation into skeletal muscle progenitor cells was analyzed with the expression of SM/C-2.6 as an index. Also analyzed was the expression of Myf5, which is a skeletal muscle-specific transcription factor in the RNA as a whole. SM/C-2.6 is a marker capable of specifically staining satellite cells, which are skeletal muscle stem cells [Fukada, S. et al., Exp Cell Res., 296, 245-255 (2004)], and has been reported to enable the separation of skeletal muscle progenitor cells from a mouse ES cell induction system [Chang, H. et al., Generation of transplantable, functional satellite-like cells from mouse embryonic stem cells. Faseb J., 23: 1907-1919 (2009)].\nFirst, the influence of the addition of Shh was determined. iPS-DsRed was induced to differentiate as illustrated in FIG. 3A. During the last 3 days, the cells were cultured in the presence of LiCl, alone or with the addition of Shh 20 ng/ml; the cells were induced to differentiate for a total of 6 days, stained with SM/C-2.6, and evaluated."}, "iPS cells": {"test_system": "iPS cells", "assay": "Timing of LiCl addition, appearance efficiency of PDGFRα-positive fraction by FACS", "assay_type": "cell-based, mouse", "details": "continuous addition of LiCl from day 1 or day 2 from start of differentiation induction", "method": "A method of increasing the appearance efficiency of skeletal muscle progenitor cells derived from iPS cells was studied. Specifically, LiCl, which was added on day 3 from the start of the differentiation induction in the previous Examples, was added from a different day. Samples with addition of LiCl from day 0, 1, 2, 3 or 4 from the start of the differentiation induction were analyzed for the appearance efficiency of the PDGFRα-positive fraction by FACS analysis. As a result, not less than 60% of the induction efficiency could be reproduced by continuous addition of LiCl from day 1 or day 2 from the start of the differentiation induction (FIG. 8B). This method could also be reproduced with other iPS cell clone (iPS-Ng-20D-17)."}, "[1]": {"test_system": "mouse iPS cells (iPS-Nanog-20D-17)", "assay": "Induction of differentiation from iPS cells to primitive streak mesodermal cells (PDGFRα FACS, viable cell count)", "assay_type": "cell-based", "details": "for cell proliferation / survival: IGF-1 and/or HGF added or not", "method": "Differentiation of iPS cells was induced using a serum-free basal medium for differentiation induction prepared by adding 0.2% bovine serum albumin (Sigma), 100 μM 2-mercaptoethanol (Invitrogen), 50 mU/L penicillin and 50 μg/L streptomycin to S-Clone SF-03 (Sanko Junyaku Co., Ltd.). Various growth factors were added to the medium, and their effects were examined. Eventually, the following growth factors were used at the concentrations indicated.\nas §1, §2\nWith this in mind, a first experiment was performed to determine whether the addition of growth factors other than BMP4 supports the survival of iPS cells and promotes their differentiation into primitive streak mesodermal cells (hereinafter sometimes simply referred to as “mesoderm”). Activin A, IGF-1, and HGF were examined as growth factor candidates (FIG. 1A, italicized). With Activin A added to all culture conditions examined, 4 conditions were analyzed: “neither IGF-1 nor HGF was added”, “IGF-1 was added alone”, “HGF was added alone”, and “both were added”. The iPS cell used was iPS-Nanog-20D-17. […] However, the viable cell count was about 3 times higher in the IGF-1-alone addition group than in the IGF-1-HGF-concurrent addition group (FIG. 1B, right).\nThe influences of the concentrations of BMP4 and Activin A in the induction of differentiation from iPS cells to primitive streak mesodermal cells were examined. Specifically, of the addition conditions of Activin A 10 ng/ml, BMP4 10 ng/ml, and IGF-1 10 ng/ml determined in the previous section, the concentration of Activin A alone (FIG. 2A) or BMP4 alone (FIG. 2B) was changed, and the expression of PDGFRα was evaluated by FACS."}, "[2]": {"details": "IGF-1 experiment, IGF-1-free or IGF-1 added, irrespective of concentration"}, "[3]": {"details": "Shh experiment, LiCl alone or with Shh during last 3 days"}, "[4]": {"details": "iPS-Nanog-20D-17, Activin A added to all conditions"}, "[5]": {"details": "induction of skeletal muscle progenitor cells, last 3 days"}},
  "data": [
    {"molecule": "[Cl-].[Li+]", "note": "[LiCl, lithium chloride, reference compound]", "values": [
      {"measurement": "percentage of SM/C-2.6-positive cells", "setting": "iPS-DsRed; IGF-1-free group, last 3 days", "result": 11.9, "unit": "%"},
      {"measurement": "expression of Myf5 (RT-PCR)", "setting": "iPS-DsRed; [2]", "result": "no expression of Myf5 was observed"},
      {"measurement": "expression of Myf5 (RT-PCR)", "setting": "iPS-DsRed; [3]", "result": "not observed at all"},
      {"measurement": "percentage of SM/C-2.6-positive cells", "setting": "iPS-DsRed; Shh-free group: LiCl alone during last 3 days, total 6 days", "result": 28.5, "unit": "%"},
      {"measurement": "induction efficiency (PDGFRα-positive fraction)", "setting": "iPS cells", "result": "not less than 60%"}
    ]},
    {"molecule": "HGF: growth factor candidate examined with Activin A and IGF-1", "values": [
      {"measurement": "cell proliferation / survival", "setting": "[1]; [4]", "result": "little cells surviving"}
    ]},
    {"molecule": "insulin-like growth factor-1 [IGF-1]", "values": [
      {"measurement": "differentiation rate (mesoderm differentiation, expression of PDGFRα as an index)", "setting": "[1]; iPS-Nanog-20D-17, Activin A added to all conditions, with BMP4, starting 3 days", "result": 61.5, "unit": "%"},
      {"measurement": "cell proliferation / survival", "setting": "[1]; [4]", "result": "Cell proliferation was observed"},
      {"measurement": "viable cell count, IGF-1-alone addition group versus IGF-1-HGF-concurrent addition group", "setting": "[1]; iPS-Nanog-20D-17, with Activin A", "result": "about 3 times"},
      {"measurement": "percentage of SM/C-2.6-positive cells", "setting": "iPS-DsRed; IGF-1 5 ng/ml addition group, last 3 days", "result": 16.8, "unit": "%"},
      {"measurement": "expression of Myf5 (RT-PCR)", "setting": "iPS-DsRed; [2]", "result": "the expression of Myf5 was evident"},
      {"measurement": "effective concentration", "setting": "iPS-DsRed; [5]", "result": "≥ 5", "unit": "ng/mL"}
    ]},
    {"molecule": "sonic hedgehog [Shh]", "values": [
      {"measurement": "percentage of SM/C-2.6-positive cells", "setting": "iPS-DsRed; Shh 20 ng/ml addition group, with LiCl, last 3 days, total 6 days", "result": 38.8, "unit": "%"},
      {"measurement": "expression of Myf5 (RT-PCR)", "setting": "iPS-DsRed; [3]", "result": "Myf5 was expressed"},
      {"measurement": "optimal concentration", "setting": "iPS-DsRed; [5]", "result": "about 20 ng/ml"}
    ]},
    {"molecule": "B1", "values": [
      {"measurement": "viable cell count when BMP4 concentration decreased", "setting": "[1]; Activin A 10 ng/ml, IGF-1 10 ng/ml", "result": "remained nearly constant"},
      {"measurement": "percentage of PDGFRα-positive cells", "setting": "[1]; BMP4 10 ng/ml, Activin A 10 ng/ml, IGF-1 10 ng/ml", "result": 44.7, "unit": "%"},
      {"measurement": "percentage of PDGFRα-positive cells", "setting": "[1]; BMP4 at all concentrations of 5 ng/ml or less, Activin A 10 ng/ml, IGF-1 10 ng/ml", "result": "25-28%"}
    ]},
    {"molecule": "B2", "values": [
      {"measurement": "percentage of PDGFRα-positive cells induced", "setting": "[1]; Activin A at 5 ng/ml or more, BMP4 10 ng/ml, IGF-1 10 ng/ml", "result": "exceeded 40%"},
      {"measurement": "viable cell count for Activin A 0 ng/ml compared with 10 ng/ml", "setting": "[1]; BMP4 10 ng/ml, IGF-1 10 ng/ml", "result": "about one-sixth level"},
      {"measurement": "concentrations at which more effective", "setting": "[1]; based on PDGFRα-positive percentage and viable cell count", "result": "5 to 10", "unit": "ng/mL"},
      {"measurement": "cell proliferation / survival", "setting": "[1]; [4]", "result": "some cells survived"}
    ]}
  ]
}
